Columns and labels:
[1] = target: T1, Histone-lysine N-methyltransferase EHMT2 (Homo sapiens) (UniProt Q96KQ7); settings: at 10 µM
T1 sequence (whole entry): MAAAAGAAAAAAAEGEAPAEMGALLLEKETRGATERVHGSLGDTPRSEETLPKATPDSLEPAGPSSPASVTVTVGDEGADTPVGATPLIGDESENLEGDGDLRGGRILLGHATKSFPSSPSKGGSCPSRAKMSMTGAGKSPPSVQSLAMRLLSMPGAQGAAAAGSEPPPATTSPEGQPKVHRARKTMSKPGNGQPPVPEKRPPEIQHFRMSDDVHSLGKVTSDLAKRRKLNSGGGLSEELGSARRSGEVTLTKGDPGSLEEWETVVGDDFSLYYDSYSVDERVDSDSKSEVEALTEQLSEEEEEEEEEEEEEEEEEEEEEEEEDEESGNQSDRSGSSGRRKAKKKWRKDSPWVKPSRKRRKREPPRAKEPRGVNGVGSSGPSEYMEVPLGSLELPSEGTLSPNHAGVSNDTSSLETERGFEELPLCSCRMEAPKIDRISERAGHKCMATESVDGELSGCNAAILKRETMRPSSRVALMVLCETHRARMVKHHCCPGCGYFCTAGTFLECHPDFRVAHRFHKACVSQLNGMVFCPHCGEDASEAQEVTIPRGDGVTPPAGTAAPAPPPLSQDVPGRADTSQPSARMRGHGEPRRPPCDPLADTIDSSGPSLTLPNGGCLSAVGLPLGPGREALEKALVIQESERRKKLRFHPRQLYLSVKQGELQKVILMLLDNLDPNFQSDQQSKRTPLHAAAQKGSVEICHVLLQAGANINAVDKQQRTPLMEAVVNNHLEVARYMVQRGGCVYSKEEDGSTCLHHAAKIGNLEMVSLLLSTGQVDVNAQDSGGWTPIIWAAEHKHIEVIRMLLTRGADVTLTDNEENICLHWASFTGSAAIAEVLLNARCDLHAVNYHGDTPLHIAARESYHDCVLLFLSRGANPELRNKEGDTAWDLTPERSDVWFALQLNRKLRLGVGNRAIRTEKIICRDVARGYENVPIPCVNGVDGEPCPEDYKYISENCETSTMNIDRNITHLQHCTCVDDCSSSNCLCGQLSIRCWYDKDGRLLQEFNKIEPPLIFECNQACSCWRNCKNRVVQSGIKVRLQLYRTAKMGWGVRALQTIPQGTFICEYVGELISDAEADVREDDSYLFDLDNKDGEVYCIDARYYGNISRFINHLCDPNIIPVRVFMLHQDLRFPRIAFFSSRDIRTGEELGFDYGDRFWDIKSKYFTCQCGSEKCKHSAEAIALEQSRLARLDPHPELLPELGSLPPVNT

[2] = target: Tyrosine-protein kinase receptor UFO (Homo sapiens, UniProt P30530); assay: Selectivity interaction (Kinase panel (33PanQinase(R) Activity Assay)) EUB0000877a AXL
Sequence of Tyrosine-protein kinase receptor UFO (P30530 whole entry): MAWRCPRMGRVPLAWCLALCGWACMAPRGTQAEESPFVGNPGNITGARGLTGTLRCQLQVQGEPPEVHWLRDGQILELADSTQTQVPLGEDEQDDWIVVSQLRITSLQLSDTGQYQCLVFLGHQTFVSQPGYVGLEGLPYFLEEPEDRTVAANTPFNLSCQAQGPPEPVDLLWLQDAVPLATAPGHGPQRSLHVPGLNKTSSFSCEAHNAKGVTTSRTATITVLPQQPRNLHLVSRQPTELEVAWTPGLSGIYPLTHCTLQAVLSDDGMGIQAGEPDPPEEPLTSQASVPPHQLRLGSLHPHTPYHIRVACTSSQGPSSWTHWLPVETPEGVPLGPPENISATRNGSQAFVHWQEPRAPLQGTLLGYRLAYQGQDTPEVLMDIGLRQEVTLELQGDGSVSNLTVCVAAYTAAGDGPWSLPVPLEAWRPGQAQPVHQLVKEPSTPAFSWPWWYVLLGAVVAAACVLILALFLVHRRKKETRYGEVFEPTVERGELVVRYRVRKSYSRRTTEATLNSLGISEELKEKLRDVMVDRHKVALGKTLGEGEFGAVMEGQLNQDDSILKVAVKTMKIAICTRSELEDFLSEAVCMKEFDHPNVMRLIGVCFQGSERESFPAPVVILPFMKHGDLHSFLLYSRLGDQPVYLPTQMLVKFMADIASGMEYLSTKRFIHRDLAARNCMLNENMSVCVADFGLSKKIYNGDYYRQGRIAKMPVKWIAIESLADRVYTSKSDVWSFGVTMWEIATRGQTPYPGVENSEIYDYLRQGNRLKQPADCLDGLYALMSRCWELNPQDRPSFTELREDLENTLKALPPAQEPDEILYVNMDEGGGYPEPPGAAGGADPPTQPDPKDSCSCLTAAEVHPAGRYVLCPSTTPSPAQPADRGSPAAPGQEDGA

[3] = target: Rho-associated protein kinase 2 (Homo sapiens, UniProt O75116); assay: Selectivity interaction (Kinase panel (33PanQinase(R) Activity Assay)) EUB0000877a ROCK2
Sequence of Rho-associated protein kinase 2 (O75116 whole entry): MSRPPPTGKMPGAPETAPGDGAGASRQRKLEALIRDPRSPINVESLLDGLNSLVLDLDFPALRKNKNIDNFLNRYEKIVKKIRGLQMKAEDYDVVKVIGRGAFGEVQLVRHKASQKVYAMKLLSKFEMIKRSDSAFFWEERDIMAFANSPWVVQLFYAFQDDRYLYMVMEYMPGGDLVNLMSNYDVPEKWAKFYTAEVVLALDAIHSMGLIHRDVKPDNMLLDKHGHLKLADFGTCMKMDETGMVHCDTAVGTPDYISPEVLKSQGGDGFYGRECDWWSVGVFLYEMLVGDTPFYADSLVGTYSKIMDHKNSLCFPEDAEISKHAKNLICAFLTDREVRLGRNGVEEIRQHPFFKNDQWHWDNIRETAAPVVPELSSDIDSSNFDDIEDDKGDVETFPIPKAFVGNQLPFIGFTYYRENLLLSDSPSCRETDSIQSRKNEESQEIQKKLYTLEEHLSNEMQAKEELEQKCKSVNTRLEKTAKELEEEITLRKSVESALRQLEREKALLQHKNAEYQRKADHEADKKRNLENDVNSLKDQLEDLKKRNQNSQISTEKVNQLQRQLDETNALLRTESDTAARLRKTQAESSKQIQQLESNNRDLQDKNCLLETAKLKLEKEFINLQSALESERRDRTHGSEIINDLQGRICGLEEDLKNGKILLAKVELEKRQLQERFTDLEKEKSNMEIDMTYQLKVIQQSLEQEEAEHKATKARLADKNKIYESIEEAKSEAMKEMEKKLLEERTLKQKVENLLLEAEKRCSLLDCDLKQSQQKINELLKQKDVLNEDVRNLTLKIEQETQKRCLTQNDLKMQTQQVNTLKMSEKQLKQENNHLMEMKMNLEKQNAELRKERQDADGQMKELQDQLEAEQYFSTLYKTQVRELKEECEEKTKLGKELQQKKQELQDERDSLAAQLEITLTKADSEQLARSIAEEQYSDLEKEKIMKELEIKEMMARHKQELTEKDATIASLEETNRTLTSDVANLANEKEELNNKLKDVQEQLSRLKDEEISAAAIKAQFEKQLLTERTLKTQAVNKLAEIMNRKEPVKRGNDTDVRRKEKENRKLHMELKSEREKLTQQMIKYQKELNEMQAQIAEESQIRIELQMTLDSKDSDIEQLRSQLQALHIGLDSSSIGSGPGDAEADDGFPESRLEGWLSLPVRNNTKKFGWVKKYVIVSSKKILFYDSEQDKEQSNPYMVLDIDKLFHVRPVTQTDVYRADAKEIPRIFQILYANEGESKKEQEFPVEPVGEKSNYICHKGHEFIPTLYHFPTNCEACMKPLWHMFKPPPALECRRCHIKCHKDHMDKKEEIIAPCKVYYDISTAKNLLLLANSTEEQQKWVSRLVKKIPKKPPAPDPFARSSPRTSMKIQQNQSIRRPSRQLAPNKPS

[4] = target: T2, Serine/threonine-protein kinase 3 (Homo sapiens) (UniProt Q13188); assay: Selectivity interaction (ActivX KiNativ screen (ex vivo kinase selectivity in human PBMCs)) EUB0001619a STK3; assay type: cell-based; settings: PBMC, at 1 µM
T2 sequence (whole entry): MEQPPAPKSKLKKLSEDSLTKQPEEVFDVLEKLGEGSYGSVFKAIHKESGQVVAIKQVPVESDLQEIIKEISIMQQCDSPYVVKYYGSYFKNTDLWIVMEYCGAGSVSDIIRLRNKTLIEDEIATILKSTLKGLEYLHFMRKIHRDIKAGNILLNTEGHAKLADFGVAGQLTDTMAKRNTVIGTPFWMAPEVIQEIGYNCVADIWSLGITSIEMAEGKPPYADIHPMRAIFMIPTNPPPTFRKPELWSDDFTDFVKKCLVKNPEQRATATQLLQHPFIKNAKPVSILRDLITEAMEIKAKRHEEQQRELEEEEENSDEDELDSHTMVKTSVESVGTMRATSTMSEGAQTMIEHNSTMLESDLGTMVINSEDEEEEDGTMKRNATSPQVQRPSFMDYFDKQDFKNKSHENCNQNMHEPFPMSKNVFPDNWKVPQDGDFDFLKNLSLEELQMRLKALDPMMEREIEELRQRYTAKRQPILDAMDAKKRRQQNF

[5] = target: T3, Receptor-interacting serine/threonine-protein kinase 4 (Homo sapiens) (UniProt P57078); assay: Selectivity interaction (KinomeScan (DiscoverX)) EUB0001619a RIPK4; settings: at 1 µM
T3 sequence (whole entry): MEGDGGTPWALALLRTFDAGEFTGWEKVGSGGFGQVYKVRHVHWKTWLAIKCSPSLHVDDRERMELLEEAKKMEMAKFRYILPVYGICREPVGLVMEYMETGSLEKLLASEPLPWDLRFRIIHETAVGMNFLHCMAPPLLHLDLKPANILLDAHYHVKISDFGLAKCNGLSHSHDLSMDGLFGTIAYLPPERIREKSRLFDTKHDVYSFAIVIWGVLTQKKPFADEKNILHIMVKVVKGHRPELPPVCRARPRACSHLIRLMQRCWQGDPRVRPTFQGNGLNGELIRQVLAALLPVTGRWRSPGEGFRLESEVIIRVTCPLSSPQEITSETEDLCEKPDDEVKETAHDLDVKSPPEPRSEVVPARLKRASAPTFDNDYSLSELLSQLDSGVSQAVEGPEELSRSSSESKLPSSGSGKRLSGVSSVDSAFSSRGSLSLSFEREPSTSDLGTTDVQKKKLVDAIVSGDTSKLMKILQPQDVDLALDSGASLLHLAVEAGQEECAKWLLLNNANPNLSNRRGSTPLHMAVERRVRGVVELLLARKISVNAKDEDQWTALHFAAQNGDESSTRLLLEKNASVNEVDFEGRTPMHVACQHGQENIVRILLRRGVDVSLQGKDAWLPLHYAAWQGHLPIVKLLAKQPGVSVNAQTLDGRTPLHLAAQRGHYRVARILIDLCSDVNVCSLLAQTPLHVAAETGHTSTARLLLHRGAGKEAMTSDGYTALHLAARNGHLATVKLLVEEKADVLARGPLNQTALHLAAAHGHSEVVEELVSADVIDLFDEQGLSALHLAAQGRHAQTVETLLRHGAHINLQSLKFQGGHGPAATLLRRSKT

[6] = target: Calcium/calmodulin-dependent protein kinase kinase 1 (Homo sapiens) (UniProt Q8N5S9); assay: Selectivity interaction (KinomeScan (DiscoverX)) EUB0000618a CAMKK1; settings: at 10 µM
Sequence of Calcium/calmodulin-dependent protein kinase kinase 1 (Homo sapiens) (Q8N5S9 whole entry, looked up): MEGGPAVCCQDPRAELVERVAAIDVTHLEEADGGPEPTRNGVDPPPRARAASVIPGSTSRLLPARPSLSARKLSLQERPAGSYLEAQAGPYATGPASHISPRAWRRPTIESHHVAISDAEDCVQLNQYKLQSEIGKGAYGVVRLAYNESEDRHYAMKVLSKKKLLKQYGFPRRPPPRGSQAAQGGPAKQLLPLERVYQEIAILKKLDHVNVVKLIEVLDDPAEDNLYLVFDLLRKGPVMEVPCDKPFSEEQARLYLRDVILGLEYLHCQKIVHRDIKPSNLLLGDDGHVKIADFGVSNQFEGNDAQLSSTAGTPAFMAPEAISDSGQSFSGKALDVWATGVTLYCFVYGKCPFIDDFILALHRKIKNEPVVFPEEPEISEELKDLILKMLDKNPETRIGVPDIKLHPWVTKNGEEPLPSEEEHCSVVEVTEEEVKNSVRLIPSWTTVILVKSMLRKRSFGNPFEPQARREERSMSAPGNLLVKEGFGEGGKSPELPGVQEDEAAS

[7] = target: Tyrosine-protein kinase Lyn (Homo sapiens, UniProt P07948); assay: Selectivity interaction (ActivX KiNativ screen (kinase selectivity in THP-1 cell lysates)) EUB0000639a LYN; assay type: subcellular; settings: lysate, at 0.2 µM
Sequence of Tyrosine-protein kinase Lyn (P07948 2-512 limits assumed): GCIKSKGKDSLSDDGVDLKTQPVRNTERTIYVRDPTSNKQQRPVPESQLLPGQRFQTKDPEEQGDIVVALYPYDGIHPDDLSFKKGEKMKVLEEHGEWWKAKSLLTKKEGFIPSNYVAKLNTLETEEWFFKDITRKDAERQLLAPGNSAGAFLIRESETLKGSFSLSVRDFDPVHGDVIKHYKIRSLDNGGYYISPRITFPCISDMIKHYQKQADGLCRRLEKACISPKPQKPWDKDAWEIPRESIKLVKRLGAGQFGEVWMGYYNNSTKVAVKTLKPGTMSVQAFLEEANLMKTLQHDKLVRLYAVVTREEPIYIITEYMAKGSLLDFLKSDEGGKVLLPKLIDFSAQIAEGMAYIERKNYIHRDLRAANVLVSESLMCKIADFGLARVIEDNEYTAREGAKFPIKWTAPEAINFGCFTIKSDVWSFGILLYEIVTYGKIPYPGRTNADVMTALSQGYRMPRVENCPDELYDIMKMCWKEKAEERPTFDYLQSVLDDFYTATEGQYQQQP

[8] = target: Serine/threonine-protein kinase PAK 1 (Homo sapiens) (UniProt Q13153); assay: Selectivity interaction (Ambit KINOMEscan and KiNATiv profiling in Jurkat cells) EUB0000090b PAK1; assay type: cell-based; settings: at 1 µM
Sequence of Serine/threonine-protein kinase PAK 1 (Homo sapiens) (Q13153 whole entry): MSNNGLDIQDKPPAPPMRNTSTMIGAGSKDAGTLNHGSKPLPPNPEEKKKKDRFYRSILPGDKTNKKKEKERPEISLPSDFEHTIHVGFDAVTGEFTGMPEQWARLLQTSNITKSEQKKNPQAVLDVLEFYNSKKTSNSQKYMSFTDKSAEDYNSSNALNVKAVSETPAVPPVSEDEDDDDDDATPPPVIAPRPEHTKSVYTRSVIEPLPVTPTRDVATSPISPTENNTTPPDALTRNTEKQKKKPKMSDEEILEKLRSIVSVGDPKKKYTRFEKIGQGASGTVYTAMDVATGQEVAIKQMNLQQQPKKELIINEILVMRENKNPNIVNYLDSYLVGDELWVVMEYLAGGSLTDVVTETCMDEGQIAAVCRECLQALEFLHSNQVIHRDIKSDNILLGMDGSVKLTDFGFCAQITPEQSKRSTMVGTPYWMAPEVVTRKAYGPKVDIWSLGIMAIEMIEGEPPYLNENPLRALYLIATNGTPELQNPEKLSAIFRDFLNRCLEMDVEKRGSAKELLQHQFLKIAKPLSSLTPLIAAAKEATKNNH

Structure (SMILES): CNCCN1CCC(c2cc(CN(C)C(=O)c3cccc(Oc4ccccc4)c3)ccn2)CC1
- % activity [1]: > 90%

Structure (SMILES): CCC(=O)N1CC[C@H](Nc2ncnc3c2CN(c2cnc(OC)c(C(F)(F)F)c2)CC3)C1 [LENIOLISIB]
- IC50 [2]: > 10 µM
- IC50 [3]: > 10 µM

Structure (SMILES): N#Cc1cccc(-c2c[nH]c3ncnc(N4CCOCC4)c23)c1
- % of inhibition [4]: 74%
- % of control [5]: 57%

Structure (SMILES): O[C@H]1CC[C@H](Nc2ncc3nc(Nc4c(F)cc(F)cc4F)n([C@H]4CCOC4)c3n2)CC1
- % of control [6]: 100%

Structure (SMILES): CC[C@@H]1[C@H](F)C(=O)N[C@@H]1COc1nccc2cc(C(N)=O)c(OC)cc12 [ZIMLOVISERTIB]
- % of inhibition [7]: 0%

Structure (SMILES): CN(C)C/C=C/C(=O)Nc1ccc(C(=O)N2CCCC(Nc3ncc(Cl)c(-c4c[nH]c5ccccc45)n3)C2)cc1 (stereo not drawn)
- % of control [8]: 83%

Source: ChEMBL document CHEMBL5465560, “Selectivity Literature for EUbOPEN Chemogenomic Library” (2024)
